Laboratory results from US9302014B2, “Cell-penetrating peptides having a central hydrophobic domain” (Medical Research Council, priority 2011, dated 2016).
Where two headings read alike, the source gives them in different places. Non-standard residues stand in square brackets, D forms with d. No end group written: not given here. Ahx = NCCCCCC(=O)O; βAla = NCCC(=O)O

Experiments:
[1] = mice; cited from earlier work
[2] = monkeys; cited from earlier work
dystrophin exon 23 = assay: Exon skipping in differentiated mouse H2K mdx myotubes (nested RT-PCR, densitometry); format: cell-based; settings: no transfection agent
Experimental: The exon skipping potential of Pip6-PMO conjugates was evaluated in differentiated mouse H2K mdx myotubes in the absence of any transfection agent (FIG. 1) at concentrations ranging from 0.125 μM to 1 μM. […] In the case of Pip6 sequences, the flanking arginine-rich sequences are identical (with the exception of Pip6e, which is identical except for one arginine immediately preceding the core which is displaced into the second position of the core). […] Note that we have previously shown that major changes in in vitro exon skipping activities are correlated instead with the total numbers of arginine residues [Saleh, A. F., et al., Synthesis and splice-redirecting activity of branched, arginine-rich peptide dendrimer conjugates of peptide nucleic acid oligonucleotides. Bioconjug Chem, 2010. 21(10): p. 1902-11.].
H2K mdx myotubes are derived from H2K mdx myoblasts obtained from the EDL muscle of a male H2K mdx f2 mouse. The cells are dystrophin deficient and conditionally immortal due to thermolabile simian virus 40 large tumor antigen (tsA58) expression. The myoblasts proliferate at 33° C. (10% CO2) in rich culture and differentiate into myotubes at 37° C. in media with horse serum.
H2K mdx myotubes were prepared and incubated with peptide-PNA and peptide-PMO conjugates in the absence of any transfection agent by the methods described previously (Wang, Q, Yin, H, et aL (2010) In vitro evaluation of novel antisense oligonucleotides is predictive of in vivo exon skipping activity for Duchenne muscular dystrophy) but with minor variations.
Myotubes were obtained from confluent H2K mdx cells seeded in gelatine coated 24-well plates following 2 days of serum deprivation (DMEM with 5% horse serum). The conjugates were incubated with myotubes for 4 h in 0.5 mL OptiMEM and then replaced by 1 mL of DMEM/5% horse serum media for further incubation. After 20 h myotubes were washed twice with PBS and total RNA was extracted with 0.5 mL of TRI Reagent (Sigma, UK). RNA preparations were treated with RNAse free DNAse (2U) and Proteinase K ([…]) prior to RT-PCR analysis. RT-PCR was carried out in 25 μL with 1 μg RNA template using SuperScript III One-Step RTPCR System with Platinum Taq DNA polymerase (Invitrogen) primed by forward primer 5′CAG AAT TCT GCC AAT TGC TGAG3′ [SEQ ID NO:312] and reverse primer 5′TTC TTC AGC TTG TGT CAT CC3′ [SEQ ID NO:313]. The initial cDNA synthesis was performed at 55° C. for 30 min followed by 30 cycles of 95° C. for 30 sec, 55° C. for 1 min and 68° C. for 80 sec. RT PCR product ([…]) was then used as the template for secondary PCR performed in 25 μL with 0.5 U Super TAQ polymerase (HT Biotechnologies) and primed by forward primer 5′CCCAGTCTACCACCCTATCAG AGC3′ [SEQ ID NO:314] and reverse primer 5′CCT GCC TTT AAG GCT TCC TT3′ [SEQ ID NO:315]. The cycling conditions were 95° C. for 1 min, 57° C. for 1 min and 72° C. for 80 sec for 25 cycles. Products were examined by 2% agarose gel and after scanning using Gene Tools Analysis Software (SynGene) the relative amount of exon 23 skipping was expressed as a percentage at a given concentration of conjugates averaged over duplicates of three experiments.
H2K mdx myotubes were prepared and incubated with peptide-PMO conjugates in the absence of any transfection agent at concentrations of 0.125, 0.25, 0.5 and 1.0 μM by the method described previously [Yin, H., et al., Pip5 transduction peptides direct high efficiency oligonucleotide-mediated dystrophin exon skipping in heart and phenotypic correction in mdx mice. Mol Ther, 2011. 19(7): p. 1295-303.]. The products of nested RT-PCR from total isolated RNA were examined by electrophoresis on a 2% agarose gel. Quantification of Δ23 transcript levels was calculated using densitometry. […]

dystrophin [3] = assay: Immunohistochemical staining and quantification of dystrophin in mdx mice after single IV injection; format: in vivo; settings: 8 week old mdx mice, single 12.5 mg/kg IV, 2 weeks after injection
Excerpt: Given the potency of Pip5e-PMO in heart tissue, the aim of altering the sequence of the hydrophobic core (whilst maintaining the 5-aa length) was to identify peptides that might be more efficient at lower doses. These modifications included inversion of the hydrophobic region (Pip6a), substitution of tyrosine by isoleucine (Pip6b), substitution of glutamine in the Pip6a sequence by displacement of the arginine immediately flanking the core in the first arginine-rich flanking region (Pip6e), and a scrambled hydrophobic core sequence (Pip6f). All Pip6 peptide-PMO conjugates were administered to mdx mice as single 12.5 mg/kg intravenous injections via the tail vein and tissues were harvested 2 weeks later and assessed for activity at both RNA and protein levels.
Immunohistochemical staining quantification (FIGS. 34a, b) was performed as previously described [Malerba, A., et al., Chronic systemic therapy with low-dose morpholino oligomers ameliorates the pathology and normalizes locomotor behavior in mdx mice. Mol Ther, 2011. 19(2): p. 345-54; Arechavala-Gomeza, V., et al., Immunohistological intensity measurements as a tool to assess sarcolemma-associated protein expression. Neuropathol Appl Neurobiol, 2010. 36(4): p. 265-74.] and was achieved by taking 4 representative frames of the dystrophin staining and correlating this with laminin staining for each section (n=3) of the quadriceps, diaphragm and heart for each peptide-PMO treatment. Untreated mdx and treated mdx mice were normalised to C57BL10 mice. This method allows comparison of the staining intensity of dystrophin at the sarcolemma relative to laminin for each treatment group. Intensity ratios are normalised to C57BL10 samples and each region of interest at the sarcolemma (120 regions for each treatment group) is plotted on a scatter graph. […]
Transverse sections of tissue samples were cut (8 μm thick) for the examination of dystrophin expression. For dystrophin visualisation and quantification, sections were co-stained with rabbit-anti-dystrophin (Abcam) and rat anti-laminin (Sigma), and detected by goat-anti-rabbit IgG Alexa 594 and goat-anti-rat IgG 488 secondary antibodies respectively (Invitrogen). […] Quantitative immunohistochemistry was performed as previously described [Malerba, A., et al., Chronic systemic therapy with low-dose morpholino oligomers ameliorates the pathology and normalizes locomotor behavior in mdx mice. […] For quantification, 4 representative frames of the dystrophin and correlating laminin were taken for each section (n=3) of the quadriceps, diaphragm and heart for each treatment. […] The minimum and maximum fluorescence intensity for 120 regions were recorded for each treatment. […]

dystrophin [4] = settings: intramuscular or intravenous delivery in mdx mice; cited from earlier work
[5] = Example 5, conjugate 0.125 to 2.0 μM

## Exon-skipping PMO: phosphorodiamidate morpholino oligonucleotide for exon skipping, unconjugated, from cited toxicology studies (GGCCAAACCTCGGCTTACCTGAAAT; all phosphorodiamidate morpholino (PMO))
[1]
  well tolerated dosage: ≤ 960 mg/kg
[2]
  well tolerated dosage: ≤ 320 mg/kg

## Pip7d: Pip7 series peptide (SEQ ID NOs:11-16) conjugated to PMODMD (R[Ahx]R[βAla][Ahx]YRFLI[Ahx]R[βAla]R[Ahx]R[βAla]; also: conjugated to PMO (PMODMD), site not given here)
Dystrophin exon 23; conjugate 0.125 to 1 μM
  exon skipping activity (Δ23 skipping) in mdx muscle cells: moderate exon skipping

## Pip8a: Pip8 series peptide (SEQ ID NOs:17-20, parent Pip 6a; 9 Arg) conjugated to PMODMD (R[Ahx]RR[βAla]R[Ahx]RYQFLIR[Ahx]RR[βAla]R[βAla]; also: conjugated to PMO (PMODMD))
Dystrophin exon 23; [5]
  exon skipping activity (Δ23 skipping) in mdx muscle cells: high exon skipping activity
Dystrophin exon 23; conjugate 0.125 to 1 μM
  exon skipping activity (Δ23 skipping) in mdx muscle cells: high exon skipping activity

## Pip8c2: Pip8 series peptide (SEQ ID NOs:17-20) conjugated to PMODMD (R[Ahx]RR[βAla]RYQFLIRR[βAla]R[βAla]; also: conjugated to PMO (PMODMD))
Dystrophin [3]
  dystrophin expression in the heart: negligible dystrophin production
Dystrophin exon 23; [5]
  exon skipping activity (Δ23 skipping) in mdx muscle cells: high exon skipping activity

## Pip8d: Pip8 series peptide (SEQ ID NOs:317-319) conjugated to PMODMD (R[Ahx]RR[βAla]RYQFLI[βAla]R[Ahx]R[βAla]; also: conjugated to PMO (PMODMD))
Dystrophin exon 23; [5]
  exon skipping activity (Δ23 skipping) in mdx muscle cells: high exon skipping activity

## Pip9c2: Pip9 series peptide (SEQ ID Nos 320-328) conjugated to PMODMD (R[Ahx]RR[βAla]RRFQILY[βAla]R[Ahx]R[βAla]; also: conjugated to PMO (PMODMD))
Dystrophin exon 23; [5]
  exon skipping activity (Δ23 skipping) in mdx muscle cells: high exon skipping activity

## Pip9c3: Pip9 series peptide (SEQ ID Nos 320-328) conjugated to PMODMD (R[Ahx]RR[βAla]RFQILYRR[βAla]R[βAla]; also: conjugated to PMO (PMODMD))
Dystrophin exon 23; [5]
  exon skipping activity (Δ23 skipping) in mdx muscle cells: high exon skipping activity

## Pip9d: Pip9 series peptide (SEQ ID Nos 320-328) conjugated to PMODMD (R[Ahx]RR[βAla]RFQILY[βAla]R[βAla]R[βAla]; also: conjugated to PMO (PMODMD))
Dystrophin [3]
  dystrophin expression in the heart: negligible dystrophin production
Dystrophin exon 23; [5]
  exon skipping activity (Δ23 skipping) in mdx muscle cells: high exon skipping activity

## RXRRBRRXRRBRXB (R[Ahx]RR[βAla]RR[Ahx]RR[βAla]R[Ahx][βAla]; also: conjugated to PMO (PMODMD)) [B peptide]
Dystrophin [4]
  exon skipping and dystrophin production compared to naked PMODMD: significantly enhance exon skipping and dystrophin production
